Results on 13 compounds are retold here after ChEMBL document CHEMBL4834481, “1-Aminomethyl SAR in a novel series of flavagline-inspired eIF4A inhibitors: Effects of amine substitution on cell potency and in vitro PK properties” (Bioorg Med Chem Lett, 2021).

Usually pEC50 stands for −log10 of the EC50, conventionally taken in molar units. By efflux ratio is commonly meant the permeability from basolateral to apical divided by that in the opposite direction, in the common usage. For orientation: pIC50 means −log10 of the IC50, conventionally taken in molar units. As a reminder, the inhibition is the relative decrease from the control value, in per cent. A lower inhibition goes with a weak effect.

Series [1] deals with MDA-MB-231. Kind of series: Antiproliferative activity against human MDA-MB-231 cells. The format is functional, cell-based.
The nature of series [2]: Permeability of the compound across apical to basolateral side in human Caco-2 cells. To be noted: read-out: permeability. The format is ADME, cell-based. In general terms: Caco-2 cells form a polarised layer with tight junctions and transporters.
The nature of series [3]: Efflux ratio of permeability in human Caco-2 cells. The format is ADME, cell-based.
The nature of series [4]: Metabolic stability of the compound in mouse liver microsomes assessed as parent compound remaining measured after 30 mins. Particulars: for remaining at 0.5 h: liver microsomes, read-out: Stabilty. The format is ADME, Microsome.
A short description of series [5]: Metabolic stability of the compound in rat liver microsomes assessed as parent compound remaining measured after 30 mins. To be noted: read-out: Stabilty. The format is ADME, Microsome. (Liver microsomes are vesicles of endoplasmic reticulum, rich in cytochrome P450 enzymes.)
Series [6] in a line: Metabolic stability of the compound in human liver microsomes assessed as parent compound remaining measured after 30 mins. The format is ADME, Microsome. To be noted: read-out: Stabilty.
Series [7] concerns the target T1, Eukaryotic initiation factor 4A-I (Homo sapiens, UniProt P60842). Kind of series: Inhibition of eIF4A (unknown origin) assessed as inhibition of translation of RNA featuring highly structured 5'-UTR of c-Myc.
For series [8], the target named is T1, Eukaryotic initiation factor 4A-I. Nature of the series: Inhibition of eIF4A (unknown origin) assessed as inhibition of translation of RNA featuring short 5'-UTR of tubulin.
The species named for the next series is Homo sapiens. Kind of series: Selectivity ratio of IC50 for inhibition of eIF4A (unknown origin) assessed as inhibition of translation of RNA featuring short 5'-UTR of tubulin to IC50 for inhibition of eIF4A (unknown origin) assessed as inhibition of translation of RNA featuring highly structured 5'-UTR of c-Myc.
A further series deals with hERG (KCNH2) (Homo sapiens, UniProt Q12809). Nature of the series: Inhibition of human ERG at 10 uM by automated patch method relative to control.
Sequence of hERG (KCNH2) (Q12809 whole entry): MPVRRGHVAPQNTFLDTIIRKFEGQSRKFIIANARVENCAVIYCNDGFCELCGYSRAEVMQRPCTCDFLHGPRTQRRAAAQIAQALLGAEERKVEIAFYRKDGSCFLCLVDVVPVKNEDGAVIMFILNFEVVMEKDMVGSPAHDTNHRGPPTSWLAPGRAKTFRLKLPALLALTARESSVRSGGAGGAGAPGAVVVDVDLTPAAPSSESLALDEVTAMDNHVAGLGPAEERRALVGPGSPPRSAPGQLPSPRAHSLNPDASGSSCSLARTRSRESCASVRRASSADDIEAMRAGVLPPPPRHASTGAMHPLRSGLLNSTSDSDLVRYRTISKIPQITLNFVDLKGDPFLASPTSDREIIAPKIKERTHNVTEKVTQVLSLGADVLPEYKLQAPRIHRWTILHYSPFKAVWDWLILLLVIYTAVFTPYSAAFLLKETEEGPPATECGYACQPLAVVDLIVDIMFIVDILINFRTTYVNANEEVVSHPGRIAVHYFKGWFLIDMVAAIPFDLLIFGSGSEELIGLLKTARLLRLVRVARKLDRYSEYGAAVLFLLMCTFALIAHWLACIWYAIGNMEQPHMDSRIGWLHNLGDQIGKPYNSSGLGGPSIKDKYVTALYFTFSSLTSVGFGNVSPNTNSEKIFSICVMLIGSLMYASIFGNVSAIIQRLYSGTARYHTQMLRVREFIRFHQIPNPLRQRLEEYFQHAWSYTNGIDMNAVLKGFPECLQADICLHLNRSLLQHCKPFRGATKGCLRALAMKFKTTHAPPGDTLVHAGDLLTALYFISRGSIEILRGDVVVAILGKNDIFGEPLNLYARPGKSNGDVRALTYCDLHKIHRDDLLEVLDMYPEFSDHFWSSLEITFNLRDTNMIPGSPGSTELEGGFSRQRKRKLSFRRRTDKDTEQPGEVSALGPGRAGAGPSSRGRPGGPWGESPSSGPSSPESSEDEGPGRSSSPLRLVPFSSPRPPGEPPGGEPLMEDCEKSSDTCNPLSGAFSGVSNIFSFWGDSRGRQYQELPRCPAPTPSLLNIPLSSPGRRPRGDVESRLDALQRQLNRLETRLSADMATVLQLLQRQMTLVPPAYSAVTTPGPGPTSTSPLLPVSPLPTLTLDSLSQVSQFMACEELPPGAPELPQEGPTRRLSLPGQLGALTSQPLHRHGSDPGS
Series [9] has as its system MDA-MB-231. Nature of the series: Antiproliferative activity against human MDA-MB-231 cells assessed as inhibition of cell viability incubated for 72 hrs by CellTiter-Glo assay. To be noted: MDA-MB-231, 72 h. The format is functional, cell-based.

SMILES strings stand for the structures. pEC50, pIC50: −log10 of the molar value. Where only a bound is given, the exact number is not on record here.

T1 sequence (P60842 whole entry): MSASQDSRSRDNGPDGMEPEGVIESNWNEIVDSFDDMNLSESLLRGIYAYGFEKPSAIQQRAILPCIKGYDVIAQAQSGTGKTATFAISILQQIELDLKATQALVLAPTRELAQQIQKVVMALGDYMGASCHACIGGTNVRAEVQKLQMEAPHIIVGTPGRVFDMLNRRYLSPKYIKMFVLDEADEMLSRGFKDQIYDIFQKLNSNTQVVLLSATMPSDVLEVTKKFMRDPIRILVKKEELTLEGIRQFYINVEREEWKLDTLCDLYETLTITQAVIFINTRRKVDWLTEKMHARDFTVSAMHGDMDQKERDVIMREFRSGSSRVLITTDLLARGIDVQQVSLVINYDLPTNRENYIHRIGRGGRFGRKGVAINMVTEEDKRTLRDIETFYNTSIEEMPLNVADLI

Take `COc1cncc2c1[C@]1(O)[C@@H](CN)C[C@@H](c3ccccc3)[C@]1(c1ccc(Br)cc1)O2` (racemic): in the series with MDA-MB-231 [1], the pEC50 is 7.82. Moreover, the Papp A→B in [2] was found to be 0.43 ×10⁻⁶ cm/s. The efflux ratio in [3] was found to be 13. Also, in series [4] (microsomes, 0.5 h), the Stabilty came out at 123%. The remaining at 0.5 h amounted to 58% in series [5] and 99% in [6]. Further, the values for the pIC50 in [7] and in series [8] were 8.30 and 7.68, respectively. In addition, the Ratio IC50 in the series listed under Homo sapiens turned out to be 4.2.

Compound `COc1cncc2c1[C@]1(O)[C@@H](CN(C)C)[C@H](CO)[C@@H](c3ccccc3)[C@]1(c1ccc(C#N)cc1)O2` (racemic) gave a pEC50 in the series on MDA-MB-231 [1] of 8.10. In series [2], the Papp A→B is 0.4 ×10⁻⁶ cm/s. Moreover, the efflux ratio in [3] worked out at 33. In addition, the remaining at 0.5 h in series [4] was determined as 67%; in series [5], 61%; in series [6], 77%. Also, at hERG (KCNH2), 10 µM produced 79% inhibition.

`N#Cc1ccc([C@@]23Oc4cc(Cl)cnc4[C@]2(O)[C@@H](CN)C[C@H]3c2ccccc2)cc1` (racemic): in the series on MDA-MB-231 [9], the pEC50 was 7.55.

Turning to `COc1cncc2c1[C@]1(O)[C@@H](CN3CCOCC3)[C@H](CO)[C@@H](c3ccccc3)[C@]1(c1ccc(C#N)cc1)O2` (racemic), the pEC50 in the series with MDA-MB-231 [1] was 7.09. Further, the Papp A→B in [2] was determined as 2.2 ×10⁻⁶ cm/s. Moreover, the efflux ratio in series [3] was 7. In addition, the remaining at 0.5 h was 41% in series [4], 27% in series [5] and 51% in series [6]. At hERG (KCNH2), the inhibition at 10 µM is less than 10%.

`COc1cncc2c1[C@]1(O)[C@@H](CN3CC4(COC4)C3)[C@H](CO)[C@@H](c3ccccc3)[C@]1(c1ccc(C#N)cc1)O2` (racemic) had a pEC50 in the series with MDA-MB-231 [1] of 7.72. Moreover, the Papp A→B in [2] amounted to 0.19 ×10⁻⁶ cm/s. Also, in series [3], the efflux ratio was 86. Besides, the remaining at 0.5 h in series [4] came to 67%; in series [5], 48%; in series [6], 92%.

With `COc1cncc2c1[C@]1(O)[C@@H](CN)[C@H](CO)[C@@H](c3ccccc3)[C@]1(c1ccc(C#N)cc1)O2` (racemic), in the series with MDA-MB-231 [1], the pEC50 is 6.97. Also, the Papp A→B in [2] is less than 0.07 ×10⁻⁶ cm/s. In [3], the efflux ratio is greater than 4. Besides, the remaining at 0.5 h stood at 83% in series [4], 97% in series [5] and 95% in [6]. The inhibition at 10 µM against hERG (KCNH2) is less than 10%.

Regarding `COc1cncc2c1[C@]1(O)[C@@H](CNC3COC3)[C@H](CO)[C@@H](c3ccccc3)[C@]1(c1ccc(C#N)cc1)O2` (racemic), in the series on MDA-MB-231 [1], the pEC50 is 7.54. Moreover, the Papp A→B in series [2] was 0.73 ×10⁻⁶ cm/s. Also, the efflux ratio in series [3] was 12. In addition, the remaining at 0.5 h was 24% in series [4], 18% in series [5] and 61% in [6]. Also, on hERG (KCNH2), the inhibition at 10 µM is less than 10%.

With `COc1cncc2c1[C@]1(O)[C@@H](CNCC(F)F)[C@H](CO)[C@@H](c3ccccc3)[C@]1(c1ccc(C#N)cc1)O2` (racemic), the negative logarithm of the EC50 (pEC50) with MDA-MB-231 [1] is 7.68. In addition, the Papp A→B in series [2] stood at 0.82 ×10⁻⁶ cm/s. Moreover, in series [3], the efflux ratio was 6.7. Also, the remaining at 0.5 h in series [4] is 1%; in [5] it was 0%; in series [6], 19%. Besides, the inhibition at 10 µM against hERG (KCNH2) was 27%.

In the series with MDA-MB-231 [1], `COc1cncc2c1[C@]1(O)[C@@H](CNC3COC3)[C@H](CO)[C@@H](c3ccccc3)[C@]1(c1ccc(Br)cc1)O2` (racemic) showed a pEC50 of 8.10. The pIC50 in series [7] is 8.64; in series [8], 7.96. The Ratio IC50 in the series filed under Homo sapiens was 4.8.

Take `COc1cncc2c1[C@]1(O)[C@@H](CN)[C@H](CO)[C@@H](c3ccccc3)[C@]1(c1ccc(Br)cc1)O2` (racemic): the pEC50 in the series on MDA-MB-231 [1] was 7.32. The Papp A→B in series [2] is 0.04 ×10⁻⁶ cm/s. Further, the efflux ratio in series [3] was found to be 61. Besides, the remaining at 0.5 h worked out at 107% in series [4], 95% in series [5] and 102% in series [6]. Besides, the inhibition at 10 µM on hERG (KCNH2) stood at 37%. Also, the figures for the pIC50 in [7] and in [8] were 7.60 and 7.05, respectively. Also, the Ratio IC50 in the series listed under Homo sapiens was determined as 3.6.

Take `COc1cncc2c1[C@]1(O)[C@@H](CNCc3ccnn3C)[C@H](CO)[C@@H](c3ccccc3)[C@]1(c1ccc(C#N)cc1)O2` (racemic): in the series with MDA-MB-231 [1], the pEC50 was 7.42. Moreover, the Papp A→B in [2] came out at 0.19 ×10⁻⁶ cm/s. Further, in series [3], the efflux ratio was found to be 76. Moreover, the remaining at 0.5 h in series [4] came to 1%; in series [5], 2%; in series [6], 1%.

For `COc1cncc2c1[C@]1(O)[C@@H](CN3CCOCC3)[C@H](CO)[C@@H](c3ccccc3)[C@]1(c1ccc(Br)cc1)O2` (racemic), the pEC50 in the series on MDA-MB-231 [1] is 7.41. For the same compound, the remaining at 0.5 h was 1% in series [4], 0% in series [5] and 6% in series [6]. Further, testing at 10 µM against hERG (KCNH2) gave an inhibition of 12%. In addition, the pIC50 was 8.00 in series [7] and 7.49 in series [8]. In addition, the Ratio IC50 in the series filed under Homo sapiens was 3.2.

In the series on MDA-MB-231 [1], `COc1cncc2c1[C@]1(O)[C@@H](CN)C[C@@H](c3ccccc3)[C@]1(c1ccc(C#N)cc1)O2` (racemic) had a pEC50 of 7.96. The Papp A→B in [2] stood at 0.13 ×10⁻⁶ cm/s. Further, in series [3], the efflux ratio amounted to 58. The remaining at 0.5 h amounted to 108% in [4], 85% in [5] and 102% in [6]. For the same compound, the inhibition at 10 µM against hERG (KCNH2) came to 54%. The pIC50 in series [7] is 8.25; in series [8], 7.66. In addition, the Ratio IC50 in the series listed under Homo sapiens is 3.9.
